Laboratory results as given in patent US20220338471A1, “HONEY BEE-SAFE ACARICIDAL COMPOUNDS” (Kansas State University Research Foundation, priority 2019, published 2022).
Several values for one entry are separate records, joined by “and”; a condition that tells them apart may be missing. Equal values may be shown once. Read-outs that look alike come from different tables or passages of the source. Square brackets hold non-standard residues; d marks the D form. Ends that are not written are not given here. Peptide text beside a SMILES is read from it. Oic = O=C(O)[C@@H]1C[C@@H]2CCCC[C@@H]2N1; Phe(4-Cl) = N[C@@H](Cc1ccc(Cl)cc1)C(=O)O; Phe(4-F) = N[C@@H](Cc1ccc(F)cc1)C(=O)O; Hyp = O=C(O)[C@@H]1C[C@@H](O)CN1; β3hF = N[C@H](CC(=O)O)Cc1ccccc1; β3hL = CC(C)C[C@H](N)CC(=O)O; β3hP = O=C(O)C[C@@H]1CCCN1; Aib = CC(C)(N)C(=O)O

Molecular target: T1, varroa mite proctolin receptor (VdProctR) (Varroa destructor, UniProt A0A7T1TE40)
T1 sequence (A0A7T1TE40 1-530): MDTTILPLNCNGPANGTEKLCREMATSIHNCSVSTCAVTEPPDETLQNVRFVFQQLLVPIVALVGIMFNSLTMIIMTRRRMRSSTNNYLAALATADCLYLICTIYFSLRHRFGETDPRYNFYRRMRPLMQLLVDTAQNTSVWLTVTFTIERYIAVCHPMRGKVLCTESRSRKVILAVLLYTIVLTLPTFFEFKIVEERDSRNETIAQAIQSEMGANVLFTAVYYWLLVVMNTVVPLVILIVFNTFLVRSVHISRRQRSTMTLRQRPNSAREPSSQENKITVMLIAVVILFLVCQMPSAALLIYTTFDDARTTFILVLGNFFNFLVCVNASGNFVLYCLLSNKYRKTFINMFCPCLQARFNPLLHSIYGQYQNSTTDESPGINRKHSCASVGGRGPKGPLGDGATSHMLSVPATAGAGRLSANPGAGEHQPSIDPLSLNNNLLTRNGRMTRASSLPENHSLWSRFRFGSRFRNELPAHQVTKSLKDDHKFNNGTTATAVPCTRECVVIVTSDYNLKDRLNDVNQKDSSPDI
Experiment: Receptor activity assay: luminescence in cells transiently transfected with varroa mite proctolin receptor
Type: cell-based
Settings: for EC50: varroa mite proctolin receptor; for Activity at high concentrations compared with proctolin: at 1 μM and 10 μM
Method: Approximately thirty hours after transfection, the cells were collected and preincubated with coelenterazine h for the functional assay. The ligands in serial dilutions were loaded into 96-well opaque plates. Cells treated with coelenterazine h were injected into each well on an Orion microplate luminometer (Berthold) luminescent plate reader. The luminescence was measured for 20 seconds immediately after the cell injections. Data analyses were performed to determine the accumulated luminescence value for 20 seconds after extraction of blank-well luminescence. A dose-response curve was generated and the EC50 (50% effective concentration) was calculated in Origin 7 (OriginLab).

[1] = first set of experiments, EC50 relative to proctolin (0.22 nM)
[2] = first set of experiments, read-out: EC50
[3] = EC50 (nM), first set of experiments
[4] = EC50 (nM), second set of peptidomimetics
[5] = second set, EC50 relative to proctolin (14.19 nM)

Molecule | Fold change [1] | EC50 [2] | EC50 [3] | also measured
CC(C)C[C@H](NC(=O)[C@H](Cc1ccc(O)cc1)NC(=O)[C@@H](N)CCCNC(=N)N)C(=O)NC(C)(C)C(=O)N[C@H](C(=O)O)[C@@H](C)O [Analog 2335, RYL[Aib]T] (H-RYL[Aib]T-OH) | 10.09 | 2.2 nM and 2.22 nM |  | 
CC(C)C[C@H](NC(=O)[C@H](Cc1ccc(O)cc1)NC(=O)[C@@H](N)CCCNC(=N)N)C(=O)N1CCC[C@H]1CC(=O)N[C@H](C(=O)O)[C@@H](C)O [Analog 2331, RYL[β3P]T] (H-RYL[β3hP]T-OH; N-terminus assumed) | 20.00 | 4.4 nM |  | Activity at high concentrations compared with proctolin: higher than that of proctolin
RGYLPT [Analog G2, RGYLPT] | 72095.45 |  | 15900 nM | 
CC(C)C[C@H](NC(=O)[C@@H](Cc1ccc(O)cc1)NC(=O)[C@@H](N)CCCNC(=N)N)C(=O)N1CCC[C@H]1C(=O)N[C@H](C(=O)O)[C@@H](C)O [Analog 2329, R[dY]LPT] (H-R[dY]LPT-OH) | 672.27 | 148 nM |  | 
CC(C)C[C@H](NC(=O)[C@H](Cc1ccc(O)cc1)NC(=O)[C@H](N)CCCNC(=N)N)C(=O)N1CCC[C@H]1C(=O)N[C@H](C(=O)O)[C@@H](C)O [Analog 2330, [dR]YLPT] (H-[dR]YLPT-OH; N-terminus assumed) | 25.55 | 5.6 nM and 5.62 nM |  | Activity at high concentrations compared with proctolin: higher than that of proctolin
CC(=O)N[C@@H](CCCNC(=N)N)C(=O)N[C@@H](Cc1ccc(F)cc1)C(=O)N[C@@H](CC(C)C)C(=O)N1C[C@H](O)C[C@H]1C(=O)N[C@H](C(=O)O)[C@@H](C)O [Ac-2441, Ac-R[Phe(4-F)]L[HyP]T] (Ac-R[Phe(4-F)]L[Hyp]T-OH) |  |  |  | EC50 [4]: 471 nM; Fold change [5]: 33.20
CC(C)C[C@@H](CC(=O)N1CCC[C@H]1C(=O)N[C@H](C(=O)O)[C@@H](C)O)NC(=O)[C@H](Cc1ccc(O)cc1)NC(=O)[C@@H](N)CCCNC(=N)N [Analog 2332, RY[β3L]PT] (H-RY[β3hL]PT-OH) | 927.27 | 204 nM |  | 
RYGLPT [Analog G3, RYGLPT] | 142868.18 |  | 31400 nM | 
CC(=O)N[C@@H](CCCNC(=N)N)C(=O)N[C@@H](Cc1ccc(Cl)cc1)C(=O)N[C@@H](CC(C)C)C(=O)N1C[C@H](O)C[C@H]1C(=O)N[C@H](C(=O)O)[C@@H](C)O [Ac-2443, Ac-R[Phe(4-Cl)]L[HyP]T] (Ac-R[Phe(4-Cl)]L[Hyp]T-OH) |  |  |  | EC50 [4]: 108 nM; Fold change [5]: 7.64
CC(C)C[C@H](NC(=O)[C@@H](Cc1ccc(O)cc1)NC(=O)[C@@H](N)CCCNC(=N)N)C(=O)N1[C@H](C(=O)N[C@H](C(=O)O)[C@@H](C)O)C[C@@H]2CCCC[C@@H]21 [Analog 2340, R[dY]L[Oic]T] (H-R[dY]L[Oic]T-OH; N-terminus assumed) | 1262.27 |  | 278 nM | Potency compared with 2337 and 2338 (in words): less potent than 2337 and 2338 by approximately an order of magnitude
CC(C)C[C@H](NC(=O)[C@H](Cc1ccc(F)cc1)NC(=O)[C@@H](N)CCCNC(=N)N)C(=O)N1CCC[C@H]1C(=O)N[C@H](C(=O)O)[C@@H](C)O [Analog 2438, R[Phe(4-F)]LPT] (H-R[Phe(4-F)]LPT-OH) |  |  |  | EC50 [4]: 7.55 nM; Fold change [5]: 0.53
CC(C)C[C@H](NC(=O)C[C@H](Cc1ccccc1)NC(=O)[C@@H](N)CCCNC(=N)N)C(=O)N1C[C@H](O)C[C@H]1C(=O)N[C@H](C(=O)O)[C@@H](C)O [Analog 2338, R[β3F]L[HyP]T] (H-R[β3hF]L[Hyp]T-OH) | 119.59 |  | 26 nM and 26.3 nM | Factor by which potency exceeds that of the corresponding analog with only a single replacement at Y2 (2338 vs 2333, 2337 vs 2329): 8; Efficacy (maximal response) (in words): full efficacy
CC(C)C[C@@H](NC(=O)[C@H](Cc1ccc(O)cc1)NC(=O)[C@@H](N)CCCNC(=N)N)C(=O)N1CCC[C@H]1C(=O)N[C@H](C(=O)O)[C@@H](C)O [Analog 2328, RY[dL]PT] (H-RY[dL]PT-OH) | 413.36 | 90.9 nM |  | 
GRYLPT [Analog G1, GRYLPT] | 140.36 |  | 30.9 nM | 
